Ends that are not written are not given here.
How the values were obtained:
[1] = GLP toxicology study, daily IV bolus for 28 days, rat; type: in vivo
Method: Anatomical pathology provided a No Observable Adverse Effect Level (NOAEL) of 200 mg/kg/day for rats. […] With results indicating antitumor activity in animal studies, a small toxicological footprint, a novel oncology target and a mechanism of action supported by the literature, SOR-C13 was formulated for intravenous injection (IV) for clinical evaluation. Here we present results of the ‘first-in-human’, Phase I clinical study evaluating SOR-C13 in adults with advanced solid tumors of epithelial origin refractory to all standard-of-care treatments.

[2] = Phase I safety and tolerability (NCI CTCAE v4.0, DLT) in patients with advanced solid tumors; type: in vivo, human
Method: Dose-escalation was carried out according to a standard 3 + 3 design. At each dose level, cohorts of 3 to 6 patients were scheduled to receive two 21-day cycles of SOR-C13 treatment. SOR-C13 was administered on days 1–3 and 8–10 of the 21-day cycle was administered by IV infusion. The study drug (500 mg/vial) was dissolved in water for injection (2 mL) and diluted in saline prior to infusion to provide a 250 mL (total) infusion volume. Infusion time was increased after the first five patients from the initial 20 min to 90 min with the aim of increasing the safety and tolerability of the drug. In the event of clinically meaningful response (tumor response or stable disease), additional SOR-C13 cycles were offered to study patients. Post-treatment follow-up was completed one and two months after completion of SOR-C13 treatment.
A Safety Monitoring Committee (SMC) oversaw the safety aspects of the study. Safety endpoints included: incidence of adverse events (AEs) and serious AEs (SAEs), withdrawals due to AEs, Dose Limiting Toxicities (DLTs), infusion reactions, deaths on study, vital signs, electrocardiogram (ECGs), clinical laboratory parameters and changes to the treatment regimen (dose delay, dose decrease) due to AEs. The National Cancer Institute (NCI) Common Terminology Criteria for Adverse Events (CTCAE) Version 4.0 was used to grade the severity of AEs.
Based on the safety data from the first two cohorts, the regulatory authorities approved a revision of the definition to “one occurrence of ≥Grade 3 toxicity or one occurrence of Grade 2 hypocalcemia, over the first 21-day cycle”. The latter definition was used for the subsequent four cohorts in the study.

[3] = Cohort 1 5.5 mg/kg N = 3, 20-min infusions
[4] = Cohort 1, 5.50 mg/kg, C1 D2, Dose# 2
[5] = Cohort 1, 5.50 mg/kg, C1 D8, Dose# 4
[6] = Cohort 2 2.75 mg/kg N = 2, 20-min infusions
[7] = Cohort 2, 2.75 mg/kg, C1 D2, Dose# 2
[8] = Cohort 3 1.375 mg/kg N = 3, 90-min infusions
[9] = Cohort 4 2.75 mg/kg N = 6, 90-min infusions
[10] = Cohort 4, 2.75 mg/kg, C1 D3, Dose# 3
[11] = Cohort 5 4.13 mg/kg N = 3, 90-min infusions
[12] = Cohort 6 6.20 mg/kg N = 6, 90-min infusions
[13] = Cohort 6, 6.20 mg/kg, C1 D8, Post 3
[14] = Cohort 6, 6.20 mg/kg, C1 D18, Post 6

Sequence: KEFLHPSKVDLPR [SOR-C13]
- antigenicity [1]: no antigenicity
- cardiovascular toxicity [1]: no cardiovascular toxicity
- toxicity [1]: minimal toxicity
- Any TEAEs, Event ([2]; All Patients N = 23): 185
- TEAEs Definitely related, Event ([2]; All Patients N = 23): 5
- TEAEs Possibly related, Event ([2]; All Patients N = 23): 29
- TEAEs Probably related, Event ([2]; All Patients N = 23): 7
- TEAEs Remotely/Unlikely related, Event ([2]; All Patients N = 23): 10
- TEAEs Remotely/Unlikely related, Patient ([2]; All Patients N = 23): 4 (17)
- TEAEs Unrelated, Event ([2]; All Patients N = 23): 134
- TEAEs Unrelated, Patient ([2]; All Patients N = 23): 21 (91)
- Any TEAEs, Event [2, 3]: 49
- Any TEAEs, Patient [2, 3]: 3 (100)
- TEAEs Definitely related, Event [2, 3]: 5
- TEAEs Definitely related, Patient [2, 3]: 2 (67)
- TEAEs Possibly related, Event [2, 3]: 3
- TEAEs Possibly related, Patient [2, 3]: 2 (67)
- TEAEs Probably related, Event [2, 3]: 3
- TEAEs Probably related, Patient [2, 3]: 2 (67)
- TEAEs Remotely/Unlikely related, Event [2, 3]: 4
- TEAEs Remotely/Unlikely related, Patient [2, 3]: 1 (33)
- TEAEs Unrelated, Event [2, 3]: 34
- TEAEs Unrelated, Patient [2, 3]: 3 (100)
- DLT Blood calcium decreased, Relationship [2, 4]: Probably related
- DLT Blood calcium decreased, Severity [2, 4]: Grade 2
- DLT Blood calcium decreased, Relationship [2, 5]: Definitely related
- DLT Blood calcium decreased, Severity [2, 5]: Grade 2
- Any TEAEs, Event [2, 6]: 11
- Any TEAEs, Patient [2, 6]: 2 (100)
- TEAEs Definitely related, Event [2, 6]: 0
- TEAEs Definitely related, Patient [2, 6]: 0 (0)
- TEAEs Possibly related, Event [2, 6]: 0
- TEAEs Possibly related, Patient [2, 6]: 0 (0)
- TEAEs Probably related, Event [2, 6]: 1
- TEAEs Probably related, Patient [2, 6]: 1 (50)
- TEAEs Remotely/Unlikely related, Event [2, 6]: 0
- TEAEs Remotely/Unlikely related, Patient [2, 6]: 0 (0)
- TEAEs Unrelated, Event [2, 6]: 10
- TEAEs Unrelated, Patient [2, 6]: 2 (100)
- DLT Blood calcium decreased, Relationship [2, 7]: Probably related
- DLT Blood calcium decreased, Severity [2, 7]: Grade 2
- Any TEAEs, Event [2, 8]: 25
- Any TEAEs, Patient [2, 8]: 3 (100)
- TEAEs Definitely related, Event [2, 8]: 0
- TEAEs Definitely related, Patient [2, 8]: 0 (0)
- TEAEs Possibly related, Event [2, 8]: 0
- TEAEs Possibly related, Patient [2, 8]: 0 (0)
- TEAEs Probably related, Event [2, 8]: 0
- TEAEs Probably related, Patient [2, 8]: 0 (0)
- TEAEs Remotely/Unlikely related, Event [2, 8]: 2
- TEAEs Remotely/Unlikely related, Patient [2, 8]: 1 (33)
- TEAEs Unrelated, Event [2, 8]: 23
- TEAEs Unrelated, Patient [2, 8]: 3 (100)
- frequency of drug-related TEAEs ([2]; Cohort 3 (1.375 mg/kg), 90-min infusions): 0%
- Any TEAEs, Event [2, 9]: 52
- Any TEAEs, Patient [2, 9]: 6 (100)
- TEAEs Definitely related, Event [2, 9]: 0
- TEAEs Definitely related, Patient [2, 9]: 0 (0)
- TEAEs Possibly related, Event [2, 9]: 11
- TEAEs Possibly related, Patient [2, 9]: 4 (67)
- TEAEs Probably related, Event [2, 9]: 0
- TEAEs Probably related, Patient [2, 9]: 0 (0)
- TEAEs Remotely/Unlikely related, Event [2, 9]: 4
- TEAEs Remotely/Unlikely related, Patient [2, 9]: 2 (33)
- TEAEs Unrelated, Event [2, 9]: 37
- TEAEs Unrelated, Patient [2, 9]: 6 (100)
- frequency of drug-related TEAEs ([2]; Cohort 4 (2.75 mg/kg), 90-min infusions): 67%
- DLT Ionized calcium decreased, Relationship [2, 10]: Possibly related
- DLT Ionized calcium decreased, Severity [2, 10]: Grade 2
- Any TEAEs, Event [2, 11]: 14
- Any TEAEs, Patient [2, 11]: 3 (100)
- TEAEs Definitely related, Event [2, 11]: 0
- TEAEs Definitely related, Patient [2, 11]: 0 (0)
- TEAEs Possibly related, Event [2, 11]: 5
- TEAEs Possibly related, Patient [2, 11]: 3 (100)
- TEAEs Probably related, Event [2, 11]: 3
- TEAEs Probably related, Patient [2, 11]: 1 (33)
- TEAEs Remotely/Unlikely related, Event [2, 11]: 0
- TEAEs Remotely/Unlikely related, Patient [2, 11]: 0 (0)
- TEAEs Unrelated, Event [2, 11]: 6
- TEAEs Unrelated, Patient [2, 11]: 2 (67)
- frequency of drug-related TEAEs ([2]; Cohort 5 (4.13 mg/kg), 90-min infusions): 100%
- Any TEAEs, Event [2, 12]: 34
- Any TEAEs, Patient [2, 12]: 6 (100)
- TEAEs Definitely related, Event [2, 12]: 0
- TEAEs Definitely related, Patient [2, 12]: 0 (0)
- TEAEs Possibly related, Event [2, 12]: 10
- TEAEs Possibly related, Patient [2, 12]: 6 (100)
- TEAEs Probably related, Event [2, 12]: 0
- TEAEs Probably related, Patient [2, 12]: 0 (0)
- TEAEs Remotely/Unlikely related, Event [2, 12]: 0
- TEAEs Remotely/Unlikely related, Patient [2, 12]: 0 (0)
- TEAEs Unrelated, Event [2, 12]: 24
- TEAEs Unrelated, Patient [2, 12]: 5 (83)
- frequency of drug-related TEAEs ([2]; Cohort 6 (6.20 mg/kg), 90-min infusions): 100%
- DLT Atrial fibrillation, Relationship [2, 13]: Unrelated
- DLT Atrial fibrillation, Severity [2, 13]: Grade 3
- DLT Anaemia, Relationship [2, 14]: Unrelated
- DLT Anaemia, Severity [2, 14]: Grade 3
- Grade 4 TEAEs ([2]; N = 23): No Grade 4 TEAE occurred
- TEAEs by MedDRA SOC: Gastrointestinal disorders, patients ([2]; N = 23): 48%
- TEAEs by MedDRA SOC: General disorders and administration site conditions, patients ([2]; N = 23): 44%
- TEAEs by MedDRA SOC: Infections and infestations, patients ([2]; N = 23): 48%
- TEAEs by MedDRA SOC: Investigations, patients ([2]; N = 23): 44%
- TEAEs by MedDRA SOC: Metabolism and nutrition disorders, patients ([2]; N = 23): 65%
- drug-related Serious Adverse Events (SAEs) ([2]; N = 23): No drug-related Serious Adverse Events (SAEs) occurred
- TEAE Anaemia, percentage of patients ([2]; N = 23, MedDRA preferred term): 30%
- TEAE Aspartate amino transferase increased, percentage of patients ([2]; N = 23, MedDRA preferred term): 17%
- TEAE Blood Calcium Decreased, percentage of patients ([2]; N = 23, MedDRA preferred term): 22%
- TEAE Blood alkaline phosphatase increased, percentage of patients ([2]; N = 23, MedDRA preferred term): 13%
- TEAE Constipation, percentage of patients ([2]; N = 23, MedDRA preferred term): 17%
- TEAE Cough, percentage of patients ([2]; N = 23, MedDRA preferred term): 17%
- TEAE Decreased Appetite, percentage of patients ([2]; N = 23, MedDRA preferred term): 22%
- TEAE Diarrhoea, percentage of patients ([2]; N = 23, MedDRA preferred term): 13%
- TEAE Fatigue, percentage of patients ([2]; N = 23, MedDRA preferred term): 30%
- TEAE Hypercalcaemia, percentage of patients ([2]; N = 23, MedDRA preferred term): 13%
- TEAE Hyperkalaemia, percentage of patients ([2]; N = 23, MedDRA preferred term): 13%
- TEAE Hypoalbuminaemia, percentage of patients ([2]; N = 23, MedDRA preferred term): 30%
- TEAE Hypocalcaemia, percentage of patients ([2]; N = 23, MedDRA preferred term): 13%
- TEAE Nausea, percentage of patients ([2]; N = 23, MedDRA preferred term): 22%
- TEAE Urinary Tract Infection, percentage of patients ([2]; N = 23, MedDRA preferred term): 30%
- total number of Grade 3 TEAEs ([2]; N = 23, in thirteen patients): 18
- patients with DLTs ([2]; all cohorts, N = 23, first 21-day cycle): 26.1%
- drug-related blood calcium decrease, patients ([2]; all patients N = 23): 13%
- drug-related decreased appetite, patients ([2]; all patients N = 23): 9%
- drug-related hypoalbuminemia, patients ([2]; all patients N = 23): 30%
- drug-related hypocalcemia, patients ([2]; all patients N = 23): 13%
- drug-related increased aspartate aminotransferase (AST), patients ([2]; all patients N = 23): 9%
- Maximal Tolerated Dose (MTD) ([2]; doses up to 6.2 mg/kg): not established
- drug-related hypocalcemia, patients ([2]; patients receiving 90-min infusions (n = 18)): 13%
- patients with TEAEs related to the study drug ([2]; possibly, probably or definitely related, total population N = 23): 70%
- Grade 3 TEAEs assessed as related to the study drug ([2]; urticaria, ALT increased, AST increased, headache, hypokalaemia): Five of the 18
- deaths during treatment or post-treatment follow-up ([2]; within two months after the last study drug administration): No deaths occurred

From paper PMC5418314, “First-in-human phase I study of SOR-C13, a TRPV6 calcium channel inhibitor, in patients with advanced solid tumors” (Investigational New Drugs, 2017)
